Test results reported in PubChem BioAssay AID248 (DTP/NCI, 2004).
Several values for one entry are separate records, joined by “and”; a condition that tells them apart may be missing. Equal values may be shown once. Inconclusive results and toxic doses are left out. Cut-off read from the data, not from the text of the source: active = T/C of 150% or more; inactive = T/C below 125%. Square brackets hold non-standard residues; d marks the D form. Peptide text beside a SMILES is read from it. * marks the point of attachment. ξ: configuration not given here. ξF = NC(Cc1ccccc1)C(=O)O; Cbz = O=C(OCc1ccccc1)*; OBn = c1ccc(CO*)cc1

System: L1210 leukemia ip in BDF1 mice, survival T/C
Assay: NCI In Vivo Anticancer Drug Screen. Data for tumor model L1210 Leukemia (intraperitoneal) in B6D2F1 (BDF1) mice
Conditions: endpoint: mean survival time, higher = longer survival
Procedure, shortened: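 In this screen, tumor-bearing mice given compound are compared to those given vehicle, and their survival values are reported as a treated-to-control quotient.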

[1] = dose: 100.0 mg/kg/injection, schedule: Q04DX003 (ip), vehicle: saline with Tween-80
[2] = dose: 200.0 mg/kg/injection, schedule: Q04DX003 (ip), vehicle: saline with Tween-80
[3] = dose: 400.0 mg/kg/injection, schedule: Q04DX003 (ip), vehicle: saline with Tween-80
[4] = dose: 100.0 mg/kg/injection, schedule: Q01DX001 (ip), vehicle: saline
[5] = dose: 200.0 mg/kg/injection, schedule: Q01DX001 (ip), vehicle: saline
[6] = dose: 400.0 mg/kg/injection, schedule: Q01DX001 (ip), vehicle: saline
[7] = dose: 100.0 mg/kg/injection, schedule: Q04DX003 (ip), vehicle: Klucel (hydroxypropylcellulose) (HPC)
[8] = dose: 200.0 mg/kg/injection, schedule: Q04DX003 (ip), vehicle: Klucel (hydroxypropylcellulose) (HPC)
[9] = dose: 400.0 mg/kg/injection, schedule: Q04DX003 (ip), vehicle: Klucel (hydroxypropylcellulose) (HPC)
[10] = dose: 100.0 mg/kg/injection, schedule: Q01DX009 (ip), vehicle: saline
[11] = dose: 200.0 mg/kg/injection, schedule: Q01DX009 (ip), vehicle: saline
[12] = dose: 25.0 mg/kg/injection, schedule: Q01DX009 (ip), vehicle: saline with Tween-80
[13] = dose: 25.0 mg/kg/injection, schedule: Q04DX003 (ip), vehicle: saline with Tween-80
[14] = dose: 50.0 mg/kg/injection, schedule: Q04DX003 (ip), vehicle: saline with Tween-80
[15] = dose: 100.0 mg/kg/injection, schedule: Q04DX002 (ip), vehicle: saline with Tween-80
[16] = dose: 50.0 mg/kg/injection, schedule: Q04DX003 (ip), vehicle: Klucel (hydroxypropylcellulose) (HPC)
[17] = dose: 100.0 mg/kg/injection, schedule: Q04DX003 (ip), vehicle: saline
[18] = dose: 200.0 mg/kg/injection, schedule: Q04DX003 (ip), vehicle: saline
[19] = dose: 100.0 mg/kg/injection, schedule: Q01DX009 (ip), vehicle: Klucel (hydroxypropylcellulose) (HPC)
[20] = dose: 200.0 mg/kg/injection, schedule: Q01DX009 (ip), vehicle: Klucel (hydroxypropylcellulose) (HPC)
[21] = dose: 400.0 mg/kg/injection, schedule: Q01DX009 (ip), vehicle: Klucel (hydroxypropylcellulose) (HPC)

Measured: T/C

NC(=O)NC1CCCCC1
inactive: [1] 87 % of control | [2] 97 % of control | [3] 92 % of control

NC(N)=NNCCOc1c(Cl)cccc1Cl
inactive: dose: 25.0 mg/kg/injection, schedule: Q01DX001 (ip), vehicle: carboxymethylcellulose (CMC) 116 % of control | dose: 50.0 mg/kg/injection, schedule: Q01DX001 (ip), vehicle: carboxymethylcellulose (CMC) 101 % of control | dose: 100.0 mg/kg/injection, schedule: Q01DX001 (ip), vehicle: carboxymethylcellulose (CMC) 111 % of control

Clc1ccc(/C=C/c2nccc(Cl)n2)cc1
inactive: [1] 106 % of control | [2] 106 % of control | [3] 106 % of control

CC(=O)N1Cc2c(N)ncnc2C1C (stereo not drawn)
inactive: [4] 100 % of control | [5] 108 % of control | [6] 114 % of control

NSc1ccccc1[N+](=O)[O-]
inactive: [7] 100 % of control | [8] 105 % of control | [9] 100 % of control

COc1ccccc1CN1CCCN(Cc2ccccc2OC)C1c1ccc(N(CCCl)CCCl)cc1C
inactive: [4] 88 % of control | [10] 98 % of control | [5] 88 % of control | [11] 95 % of control | [6] 87 % of control

CSc1ccc(NC(=O)Nc2ccc(C(=O)NCC(=O)O)cc2)cc1
inactive: [12] 102 % of control and 92 % of control | [13] 96 % of control | [14] 105 % of control | dose: 100.0 mg/kg/injection, schedule: Q01DX001 (ip), vehicle: saline with Tween-80 97 % of control | [15] 96 % of control and 91 % of control | [1] 110 % of control | dose: 200.0 mg/kg/injection, schedule: Q04DX002 (ip), vehicle: saline with Tween-80 94 % of control and 99 % of control

CC(C)N(C(=S)SC(=S)N(C(C)C)C(C)C)C(C)C
inactive: [16] 93 % of control | [7] 90 % of control | [8] 96 % of control

OCC(O)C(O)C(O)C(O)C(O)CO (stereo not drawn)
inactive: [4] 98 % of control | dose: 100.0 mg/kg/injection, schedule: Q01DX009 (ip), vehicle: saline with Tween-80 96 % of control | [17] 94 % of control | [5] 106 % of control | dose: 200.0 mg/kg/injection, schedule: Q01DX009 (ip), vehicle: saline with Tween-80 110 % of control | [18] 97 % of control | [6] 95 % of control | dose: 400.0 mg/kg/injection, schedule: Q01DX009 (ip), vehicle: saline with Tween-80 90 % of control | dose: 400.0 mg/kg/injection, schedule: Q04DX003 (ip), vehicle: saline 106 % of control

CNC(=O)Nc1cc(Cl)c(OC)cc1OC
inactive: [19] 96 % of control | [20] 95 % of control | [21] 96 % of control

OCCOc1ccc(Br)cc1
inactive: dose: 100.0 mg/kg/injection, schedule: Q04DX002 (ip), vehicle: Klucel (hydroxypropylcellulose) (HPC) 92 % of control | dose: 200.0 mg/kg/injection, schedule: Q04DX002 (ip), vehicle: Klucel (hydroxypropylcellulose) (HPC) 95 % of control | dose: 400.0 mg/kg/injection, schedule: Q04DX002 (ip), vehicle: Klucel (hydroxypropylcellulose) (HPC) 92 % of control

CC(=O)N(N=O)c1ccc(Cl)cc1[N+](=O)[O-]
inactive: dose: 50.0 mg/kg/injection, schedule: Q01DX009 (ip), vehicle: saline 101 % of control | [10] 104 % of control

BrCCCCCc1ccccc1
inactive: [4] 106 % of control | [5] 107 % of control | [6] 101 % of control

CCN(CC)CCOC(=O)C(c1ccccc1)C1C=CCCC1 (stereo not drawn)
inactive: dose: 75.0 mg/kg/injection, schedule: Q01DX001 (ip), vehicle: saline 102 % of control | dose: 150.0 mg/kg/injection, schedule: Q01DX001 (ip), vehicle: saline 92 % of control

Cc1ccc(N=Cc2ccccc2)cc1
inactive: [19] 104 % of control | [7] 95 % of control | [20] 107 % of control | [8] 101 % of control | [21] 104 % of control | [9] 101 % of control

NC1=NCCN1c1cccc2ccccc12
inactive: dose: 75.0 mg/kg/injection, schedule: Q01DX001 (ip), vehicle: carboxymethylcellulose (CMC) 102 % of control | dose: 150.0 mg/kg/injection, schedule: Q01DX001 (ip), vehicle: carboxymethylcellulose (CMC) 98 % of control

C#CCN(CC#C)C(=O)Nc1ccc(Cl)cc1
inactive: dose: 25.0 mg/kg/injection, schedule: Q04DX002 (ip), vehicle: saline with Tween-80 96 % of control | dose: 50.0 mg/kg/injection, schedule: Q04DX002 (ip), vehicle: saline with Tween-80 96 % of control | [15] 99 % of control and 106 % of control

O=[N+]([O-])c1ccc(OCCCOc2ccccc2)cc1
inactive: [19] 112 % of control | [7] 97 % of control | [20] 101 % of control | [8] 103 % of control | [21] 98 % of control | [9] 100 % of control

O=C(CNC(=O)OCc1ccccc1)NC(Cc1ccccc1)C(=O)OCc1ccccc1 (stereo not drawn) (Cbz-Gly-[ξF]-OBn)
inactive: [1] 101 % of control | [2] 103 % of control | [3] 95 % of control

CCCCNc1nc(SC)nc2nc[nH]c12
inactive: [7] 95 % of control | [8] 96 % of control | [9] 91 % of control

CC(C)=Cc1cc(C)ccc1OC(=O)c1ccc([N+](=O)[O-])cc1
inactive: dose: 100.0 mg/kg/injection, schedule: Q01DX001 (ip), vehicle: Klucel (hydroxypropylcellulose) (HPC) 102 % of control | [19] 97 % of control | dose: 200.0 mg/kg/injection, schedule: Q01DX001 (ip), vehicle: Klucel (hydroxypropylcellulose) (HPC) 91 % of control | [20] 101 % of control | dose: 400.0 mg/kg/injection, schedule: Q01DX001 (ip), vehicle: Klucel (hydroxypropylcellulose) (HPC) 103 % of control | [21] 104 % of control

CC(Br)(c1ccccc1)[P+](c1ccccc1)(c1ccccc1)c1ccccc1 (stereo not drawn)
inactive: dose: 15.0 mg/kg/injection, schedule: Q01DX001 (ip), vehicle: carboxymethylcellulose (CMC) 96 % of control | dose: 30.0 mg/kg/injection, schedule: Q01DX001 (ip), vehicle: carboxymethylcellulose (CMC) 101 % of control

Nc1nc2nc3c(nc2c(=O)[nH]1)CN(c1ccc(C(=O)O)cc1)C3=O
inactive: dose: 12.5 mg/kg/injection, schedule: Q01DX009 (ip), vehicle: saline with Tween-80 90 % of control | [12] 94 % of control | dose: 50.0 mg/kg/injection, schedule: Q01DX009 (ip), vehicle: saline with Tween-80 87 % of control

CCCCOC(=O)c1ccc(NC(=O)Nc2ccccc2)cc1
inactive: [13] 101 % of control | [14] 93 % of control | [1] 93 % of control and 97 % of control

[N-]=[N+]=NC(c1ccccc1)C(I)c1ccccc1 (stereo not drawn)
inactive: dose: 50.0 mg/kg/injection, schedule: Q01DX001 (ip), vehicle: saline 103 % of control | [4] 103 % of control | [5] 108 % of control | [6] 97 % of control

CC(=O)CCCc1ccccc1
inactive: [10] 92 % of control | [17] 100 % of control | [11] 98 % of control | [18] 100 % of control | dose: 400.0 mg/kg/injection, schedule: Q01DX009 (ip), vehicle: saline 104 % of control

C=C1[C@@H](C)[C@H]2[C@H](Cc3ccccc3)NC(=O)[C@]23OC(=O)/C=C/[C@H](O)CCC[C@@H](C)C/C=C/[C@H]3[C@@H]1O
inactive: dose: 4.0 mg/kg/injection, schedule: Q04DX002 (ip), vehicle: saline 112 % of control | dose: 8.0 mg/kg/injection, schedule: Q04DX002 (ip), vehicle: saline 98 % of control | dose: 16.0 mg/kg/injection, schedule: Q04DX002 (ip), vehicle: saline 109 % of control | dose: 32.0 mg/kg/injection, schedule: Q04DX002 (ip), vehicle: saline 91 % of control

O=C(OC1C=CCC=C1)c1cc([N+](=O)[O-])cc([N+](=O)[O-])c1
inactive: dose: 100.0 mg/kg/injection, schedule: Q04DX003 (ip), vehicle: other 101 % of control | dose: 200.0 mg/kg/injection, schedule: Q04DX003 (ip), vehicle: other 101 % of control | dose: 400.0 mg/kg/injection, schedule: Q04DX003 (ip), vehicle: other 94 % of control

Cc1c(Cl)cc(Cl)c2ncccc12
inactive: dose: 12.5 mg/kg/injection, schedule: Q04DX003 (ip), vehicle: Klucel (hydroxypropylcellulose) (HPC) 95 % of control | dose: 25.0 mg/kg/injection, schedule: Q04DX003 (ip), vehicle: Klucel (hydroxypropylcellulose) (HPC) 86 % of control | [16] 96 % of control
